This passage reports inhibition results from US20040127739A1, “Novel n-p-propargyloxyphenethyl-thioacetic acid amides” (priority 2001, published 2004).

Assay type in all cases: in vivo
One assay concerns Plasmopara viticola. The assay is described as follows: Action against Plasmopara viticola on vines (residual-protective / residual-curative). The note with it: vine seedlings, untreated plants showed pathogen attack of 80% to 100%, read-out: inhibition of fungal infestations. Here is the method:
Action Against Plasmopara viticola on Vines a) Residual-protective Action
Vine seedlings are sprayed at the 4- to 5-leaf stage with a spray mixture (0.02% active ingredient) prepared from a wettable powder formulation of the test compound. After 24 hours, the treated plants are infected with a sporangia suspension of the fungus. Fungus infestation is evaluated after incubation for 6 days at 95-100% relative humidity and +20° C. […]
b) Residual-curative Action
Vine seedlings are infected at the 4- to 5-leaf stage with a sporangia suspension of the fungus. After incubation for 24 hours in a humidity chamber at 95-100% relative humidity and +20° C., the infected plants are dried and sprayed with a spray mixture (0.02% active ingredient) prepared from a wettable powder formulation of the test compound. After the spray coating has dried, the treated plants are placed in the humidity chamber again. Fungus infestation is evaluated 6 days after infection.

For assay [1], the system named is Phytophthora. The assay is described as follows: Action against Phytophthora on potato plants (residual-protective / systemic). The note with it: potato plants (Bintje variety), untreated plants showed pathogen attack of 80% to 100%, read-out: inhibition of fungal infestations. How it is done: Action Against Phytophthora on Potato Plants
(§1) a) Residual-protective Action
2-3 week old potato plants (Bintje variety) are sprayed with a spray mixture (0.02% active ingredient) prepared from a wettable powder formulation of the test compound. After 48 hours, the treated plants are infected with a sporangia suspension of the fungus. Fungus infestation is evaluated after incubation of the infected plants for 4 days at 90-100% relative humidity and +20° C.
2-3 week old potato plants (Bintje variety) are watered with a spray mixture (0.02% active ingredient based on the volume of the soil) prepared from a wettable powder formulation of the test compound. […] After 48 hours, the treated plants are infected with a sporangia suspension of the fungus. Fungus infestation is evaluated after incubation of the infected plants for 4 days at 90-100% relative humidity and +20° C.

The subject of assay [2] is Phytophthora. The assay is described as follows: Action against Phytophthora on tomato plants (residual-protective / systemic). The note with it: untreated plants showed pathogen attack of 80% to 100%, read-out: inhibition of fungal infestations. Here is the method: Action Against Phytophthora on Tomato Plants
as §1
After a cultivation period of 3 weeks, tomato plants are sprayed with a spray mixture (0.02% active ingredient) prepared from a wettable powder formulation of the test compound. After 48 hours, the treated plants are infected with a sporangia suspension of the fungus. Fungus infestation is evaluated after incubation of the infected plants for 5 days at 90-100% relative humidity and +20° C.
After a cultivation period of 3 weeks, tomato plants are watered with a spray mixture (0.02% active ingredient based on the volume of the soil) prepared from a wettable powder formulation of the test compound. […] After 96 hours, the treated plants are infected with a sporangia suspension of the fungus. Fungus infestation is evaluated after incubation of the infected plants for 4 days at 90-100% relative humidity and +20° C.

Usually inhibition stands for the percentage by which the read-out fell short of the control. With `C#CCOc1ccc(CCNC(=S)C(O)c2ccc(Cl)cc2)cc1OC` (stereo not shown) [Compound A2.01, 2-(4-Chloro-phenyl)-2-hydroxy-N-[2-(3-methoxy-4-prop-2-ynyloxy-phenyl)-ethyl]-thioacetamide], the inhibition at 200 ppm in the assay with Plasmopara viticola, in the assay with Phytophthora [1] and with Phytophthora [2] was 80 to 100% throughout.

Take `C#CCOc1ccc(CCNC(=S)C(OCC#C)c2ccc(Br)cc2)cc1OC` (stereo not shown) [Compound A1.02, 2-(4-bromo-phenyl)-N-[2-(3-methoxy-4-prop-2-ynyloxy-phenyl)-ethyl]-2-(prop-2-ynyloxy)-thioacetamide]: the inhibition at 200 ppm in the assay with Plasmopara viticola, with Phytophthora [1] and in the assay on Phytophthora [2] was 80 to 100% throughout.

Regarding `C#CCOc1ccc(CCNC(=S)C(OC(C)=O)c2ccc(Cl)cc2)cc1OC` (stereo not shown) [Compound A1.03, 2-acetoxy-2-(4-chloro-phenyl)-N-[2-(3-methoxy-4-prop-2-ynyloxy-phenyl)-ethyl]-thioacetamide], the inhibition at 200 ppm with Plasmopara viticola, with Phytophthora [1] and with Phytophthora [2] was 80 to 100% each time.

Take `C#CCOc1ccc(CCNC(=S)C(OCC#C)c2ccc(Cl)cc2)cc1OC` (stereo not shown) [Compound A1.01, 2-(4-Chloro-phenyl)-N-[2-(3-methoxy-4-prop-2-ynyloxy-phenyl)-ethyl]-2-(prop-2-ynyloxy)-thioacetamide]: the inhibition at 200 ppm in the assay with Plasmopara viticola, in the assay on Phytophthora [1] and in the assay with Phytophthora [2] was 80 to 100% each time.

For `C#CCOc1ccc(CCNC(=S)C(O)c2ccc(Br)cc2)cc1OC` (stereo not shown) [Compound A2.02, 2-(4-bromo-phenyl)-2-hydroxy-N-[2-(3-methoxy-4-prop-2-ynyloxy-phenyl)-ethyl]-thioacetamide], the inhibition at 200 ppm in the assay on Plasmopara viticola, with Phytophthora [1] and with Phytophthora [2] was 80 to 100% throughout.

With `C#CCOc1ccc(CCNC(=S)C(OC(C)=O)c2ccc(Br)cc2)cc1OC` (stereo not shown) [Compound A1.04, 2-acetoxy-2-(4-bromo-phenyl)-N-[2-(3-methoxy-4-prop-2-ynyloxy-phenyl)-ethyl]-thioacetamide], the inhibition at 200 ppm in the assay with Phytophthora [1] lay within 80 to 100%.
